Values quoted from earlier work as cited in PubChem BioAssay AID1259409 (Chemical Carcinogenesis Research Information System (CCRIS), 2018).

System: rodent chemically induced tumor inhibition, incidence and multiplicity
Assay: CCRIS tumor inhibitor studies
Conditions: Carcinogen: BENZO[A]PYRENE; 50-32-8; Dose [Inhibitor]: 0.034 MMOL/G IN DIET BEGINNING 1 WK PRIOR TO CARCINOGEN DOSE AND CONTINUING FOR 3 D POST LAST CARCINOGEN DOSE (STUDY DUR; Route [Inhibitor]: ORAL; Species: MOUSE; Strain/Sex: ICR/FEMALE; Target Tissue: Type of Lesion: FORESTOMACH: TUMOR; Dose [Carcinogen]: 1 MG IN 0.2 ML CORN OIL 2/WK FOR 4 WK; Promoter: NONE USED

For `Cc1occc(=O)c1O`, the “tumour outcome (control, treated, inhibition, significance)” value is listed as 94%, 100%, -6%, not significant.
